From patent US20240174723A1, “STAPLED ANTIMICROBIAL PEPTIDES (STAMPS) AND USES THEREOF” (Lytica Therapeutics, Inc., priority 2021, published 2024)
Values after ≈ are worked out from the molar mass of the structure shown. Positions of bridges follow the written chain, without caps; N, C: chain ends. Non-standard residues stand in square brackets, D forms with d. Residues, ends and D or L forms follow the SMILES beside them. S5 = C=CCCC[C@](C)(N)C(=O)O; Dap = NC[C@H](N)C(=O)O

Legend:
E. coli = format: cell-based, Escherichia coli
Description: (§1) Antimicrobial Activity Assay: The following microbroth dilution protocol was adapted from CLSI to determine the minimum inhibitory concentration (MIC) of StAMPs. Briefly, Mueller-Hinton broth (MHB) or cation-adjusted Mueller-Hinton broth (MHB II) was prepared and autoclaved. Then, a colony of bacterial cells was picked and grown overnight in broth at 37° C. and then diluted and allowed to grow again for 3-4 hours. Serial dilutions of peptide stocks in water (10 μl) were prepared using clear round-bottom polypropylene 96-well plates. Then 90 μl of bacteria in broth was added to give a final inoculum of 5×10^5 CFU/ml. The plates were then covered with porous tape to reduce evaporation and incubated for 20-24 hours at 37° C. The MIC was the minimum peptide concentration at which no visible bacterial growth was observed.
(§2) Renal toxicity was measured after 90 minutes of incubation, while liver toxicity was measured after 48 hours of incubation with StAMPs. N/A=not tested. The following apply to all peptides (i.e., StAMPs) listed in Tables A-C: Crosslinks (X^1—X^2 and X^3—X^4): (alk); N-terminus: —NH2; C-terminus: amidated with —NH2; counterion: Cl^−. The following apply to all peptides (i.e., StAMPs) listed in Table D: Crosslinks (X^1—X^2 and X^3—X^4): (alk); N-terminus: —NH2; C-terminus: as shown in table; counterion: Cl^−.

A. baumannii = format: cell-based, Acinetobacter baumannii
Description: as §1, §2

P. aeruginosa = format: cell-based, Pseudomonas aeruginosa
Description: as §1, §2
StAMP Micelle Formulation: DSPE-MPEG(2000) was suspended in buffered saline at 50-100 mg/mL overnight. StAMP stock solutions at 5-20 mg/mL in buffered saline were prepared and equal volumes of micelle and StAMP stock solution were mixed at the desired StAMP:Lipid ratio. Suspensions were allowed to sit for 5-10 minutes at room temperature before being used in in vitro and in vivo assays. […]

K. pneumoniae = format: cell-based, Klebsiella pneumoniae
Description: as §1, §2

S. aureus = format: cell-based, Staphylococcus aureus
Description: as §1, §2

in vitro = format: cell-based; details: human, Inhibitory Concentration at 50% Cytotoxicity (IC50) Human Liver Cells (HepG2)
Description: Cell culture: RPTEC were maintained in MEM media supplemented with growth factors. HEPG2 cell line was maintained in Eagle's Minimum Essential Medium (EMEM) supplemented with fetal bovine serum to a final concentration of 10%.
48 hours cytotoxicity assay: Cells were plated in a 96-well format, and after 4 hour incubation to allow attachment, serial dilutions of StAMPs from a 5 mg/mL water stock, or vehicle, were then added to the cells in a final volume of 100 μl. After incubating at 37° C. for 48 hours, 100 μl of CellTiter-Glo® reagent was added to the cells, and the plates were incubated 10 minutes at room temperature. Luminescence was then measured on a microplate reader.
as §2

Compound	Minimum Inhibitory Concentration (MIC) E. coli (E. coli) [µg/mL]	Minimum Inhibitory Concentration (MIC) A. baumannii (A. baumannii) [µg/mL]	Minimum Inhibitory Concentration (MIC) P. aeruginosa (P. aeruginosa) [µg/mL]	Minimum Inhibitory Concentration (MIC) K. pneumoniae (K. pneumoniae) [µg/mL]	Minimum Inhibitory Concentration (MIC) S. aureus (S. aureus) [µg/mL]	IC50 at 48 hours (in vitro) [µg/mL]
CC(C)[C@@H]1NC(=O)[C@@](C)(NC(=O)[C@H](C)NC(=O)[C@H](CCCCN)NC(=O)CNC(=O)[C@H](Cc2ccccc2)NC(=O)[C@H](CCCCN)NC(=O)[C@H](CCCCN)NC(=O)[C@H](CCCCN)NC(=O)[C@H](CCCCN)NC(=O)[C@H](CCN)NC(=O)[C@]2(C)CCCC=CCCC[C@](C)(NC(=O)CN)C(=O)NCC(=O)N[C@@H](CCCCN)C(=O)N[C@@H](Cc3ccccc3)C(=O)N2)CCCC=CCCC[C@@](C)(C(=O)N[C@@H](C)C(=O)N[C@@H](CCCCN)C(=O)N[C@@H](CCCCN)C(N)=O)NC(=O)[C@H](CCC(=O)O)NC(=O)CNC1=O (single isomer, unassigned) [compound 41]	2	2	4	4	>64	115 (≈ 45.3 µM)
CC(C)[C@@H]1NC(=O)[C@H](C(C)C)NC(=O)[C@@](C)(NC(=O)[C@H](C)NC(=O)[C@H](CCCCN)NC(=O)CNC(=O)[C@@H](Cc2ccccc2)NC(=O)[C@H](CCCCN)NC(=O)[C@H](CCCCN)NC(=O)[C@H](CCCCN)NC(=O)[C@H](CCCCN)NC(=O)[C@H](Cc2c[nH]cn2)NC(=O)[C@]2(C)CCCC=CCCC[C@](C)(NC(=O)CN)C(=O)NCC(=O)N[C@@H](CCCCN)C(=O)N[C@H](Cc3ccccc3)C(=O)N2)CCCC=CCCC[C@@](C)(C(=O)N[C@@H](C)C(=O)N[C@@H](CCCCN)C(=O)N[C@@H](CCCCN)C(N)=O)NC(=O)[C@H](CCC(=O)O)NC1=O [compound 28] (H-G[S5]GK[dF][S5]HKKKK[dF]GKA[S5]VVE[S5]AKK-NH2; staple 2-6, 16-20)	64	16	64	>64	>64	201 (≈ 76.9 µM)
CC(C)[C@@H]1NC(=O)[C@@](C)(NC(=O)[C@H](C)NC(=O)[C@H](CCCCN)NC(=O)CNC(=O)[C@H](Cc2ccccc2)NC(=O)[C@H](CCCCN)NC(=O)[C@H](CCCCN)NC(=O)[C@H](CCCCN)NC(=O)[C@H](CN)NC(=O)[C@H](CCCCN)NC(=O)[C@]2(C)CCCC=CCCC[C@](C)(NC(=O)CN)C(=O)NCC(=O)N[C@@H](CCCCN)C(=O)N[C@@H](Cc3ccccc3)C(=O)N2)CCCC=CCCC[C@@](C)(C(=O)N[C@@H](C)C(=O)N[C@@H](CCCCN)C(=O)N[C@@H](CCCCN)C(N)=O)NC(=O)[C@H](CCC(=O)O)NC(=O)CNC1=O [compound 47] (H-G[S5]GKF[S5]K[Dap]KKKFGKA[S5]VGE[S5]AKK-NH2; staple 2-6, 16-20)	2	2	4	6	>64	–
CC(C)[C@@H]1NC(=O)[C@@](C)(NC(=O)[C@H](C)NC(=O)[C@H](CCCCN)NC(=O)CNC(=O)[C@H](Cc2ccccc2)NC(=O)[C@H](CCCCN)NC(=O)[C@H](CN)NC(=O)[C@H](CCCCN)NC(=O)[C@H](CCCCN)NC(=O)[C@H](CCCCN)NC(=O)[C@]2(C)CCCC=CCCC[C@](C)(NC(=O)CN)C(=O)NCC(=O)N[C@@H](CCCCN)C(=O)N[C@@H](Cc3ccccc3)C(=O)N2)CCCC=CCCC[C@@](C)(C(=O)N[C@@H](C)C(=O)N[C@@H](CCCCN)C(=O)N[C@@H](CCCCN)C(N)=O)NC(=O)[C@H](CCC(=O)O)NC(=O)CNC1=O [compound 48] (H-G[S5]GKF[S5]KKK[Dap]KFGKA[S5]VGE[S5]AKK-NH2; staple 2-6, 16-20)	4	2	8	16	>64	–
CC(C)[C@@H]1NC(=O)[C@@](C)(NC(=O)[C@H](C)NC(=O)[C@H](CCCCN)NC(=O)CNC(=O)[C@H](Cc2ccccc2)NC(=O)[C@H](CN)NC(=O)[C@H](CCCCN)NC(=O)[C@H](CCCCN)NC(=O)[C@H](CCCCN)NC(=O)[C@H](CCCCN)NC(=O)[C@]2(C)CCCC=CCCC[C@](C)(NC(=O)CN)C(=O)NCC(=O)N[C@@H](CCCCN)C(=O)N[C@@H](Cc3ccccc3)C(=O)N2)CCCC=CCCC[C@@](C)(C(=O)N[C@@H](C)C(=O)N[C@@H](CCCCN)C(=O)N[C@@H](CCCCN)C(N)=O)NC(=O)[C@H](CCC(=O)O)NC(=O)CNC1=O [compound 49] (H-G[S5]GKF[S5]KKKK[Dap]FGKA[S5]VGE[S5]AKK-NH2; staple 2-6, 16-20)	4	2	8	8	>64	–
CC(C)[C@@H]1NC(=O)[C@@](C)(NC(=O)[C@H](C)NC(=O)[C@H](CN)NC(=O)CNC(=O)[C@H](Cc2ccccc2)NC(=O)[C@H](CCCCN)NC(=O)[C@H](CCCCN)NC(=O)[C@H](CCCCN)NC(=O)[C@H](CCCCN)NC(=O)[C@H](CCCCN)NC(=O)[C@]2(C)CCCC=CCCC[C@](C)(NC(=O)CN)C(=O)NCC(=O)N[C@@H](CCCCN)C(=O)N[C@@H](Cc3ccccc3)C(=O)N2)CCCC=CCCC[C@@](C)(C(=O)N[C@@H](C)C(=O)N[C@@H](CCCCN)C(=O)N[C@@H](CCCCN)C(N)=O)NC(=O)[C@H](CCC(=O)O)NC(=O)CNC1=O [compound 50] (H-G[S5]GKF[S5]KKKKKFG[Dap]A[S5]VGE[S5]AKK-NH2; staple 2-6, 16-20)	4	2	8	8	>64	–
CC(C)[C@@H]1NC(=O)[C@@](C)(NC(=O)[C@H](C)NC(=O)[C@H](CCCCN)NC(=O)CNC(=O)[C@H](Cc2ccccc2)NC(=O)[C@H](CCCCN)NC(=O)[C@H](CCCCN)NC(=O)[C@H](CCCCN)NC(=O)[C@H](CCCCN)NC(=O)[C@H](CCCCN)NC(=O)[C@]2(C)CCCC=CCCC[C@](C)(NC(=O)CN)C(=O)NCC(=O)N[C@@H](CCCCN)C(=O)N[C@@H](Cc3ccccc3)C(=O)N2)CCCC=CCCC[C@@](C)(C(=O)N[C@@H](C)C(=O)N[C@@H](CN)C(=O)N[C@@H](CCCCN)C(N)=O)NC(=O)[C@H](CCC(=O)O)NC(=O)CNC1=O [compound 51] (H-G[S5]GKF[S5]KKKKKFGKA[S5]VGE[S5]A[Dap]K-NH2; staple 2-6, 16-20)	2	2	4	4	>64	–
CC(C)[C@@H]1NC(=O)[C@@](C)(NC(=O)[C@H](C)NC(=O)[C@H](CCCCN)NC(=O)CNC(=O)[C@H](Cc2ccccc2)NC(=O)[C@H](CCCCN)NC(=O)[C@H](CCCCN)NC(=O)[C@H](CCCCN)NC(=O)[C@H](CCCCN)NC(=O)[C@H](CCCCN)NC(=O)[C@]2(C)CCCC=CCCC[C@](C)(NC(=O)CN)C(=O)NCC(=O)N[C@@H](CCCCN)C(=O)N[C@@H](Cc3ccccc3)C(=O)N2)CCCC=CCCC[C@@](C)(C(=O)N[C@@H](C)C(=O)N[C@@H](CCCCN)C(=O)N[C@@H](CN)C(N)=O)NC(=O)[C@H](CCC(=O)O)NC(=O)CNC1=O [compound 52] (H-G[S5]GKF[S5]KKKKKFGKA[S5]VGE[S5]AK[Dap]-NH2; staple 2-6, 16-20)	2	2	4	8	>64	–
